Measured values taken from ChEMBL document CHEMBL1150243, “Lignan glycosides from Neoalsomitra integrifoliola” (2008).

Experiment: Antiinflammatory activity against rat polymorphonuclear leucocytes assessed as inhibition of platelet activating factor-induced beta-glucuronidase release
Type: functional

C[C@@H]1C(=O)O[C@H]2[C@H](O)[C@@]34[C@H]5C[C@@H](C(C)(C)C)[C@]36[C@@H](OC(=O)[C@@H]6O)O[C@@]4(C(=O)O5)[C@@]12O [GINKOLIDE B]
inhibition (INH): 78.4%
